Measured values reported in patent publication US10336762B2 (priority 2017, dated 2019).
pEC50, pIC50: −log10 of the molar value. Like-named read-outs stand apart in the source and are kept apart here.

Assays:
TNFα = assay: cells; format: cell-based, human; conditions: Homo sapiens, Monocyte, LPS-stimulated human monocytes, read-out: EC50 TNF
IRAK4 enzyme = IRAK4 enzyme (Homo sapiens (Human), UniProt Q9NWZ3); assay: biochemical; format: biochemical; conditions: IRAK4 enzyme, 500 μM ATP
Sequence of IRAK4 enzyme (Q9NWZ3 whole entry): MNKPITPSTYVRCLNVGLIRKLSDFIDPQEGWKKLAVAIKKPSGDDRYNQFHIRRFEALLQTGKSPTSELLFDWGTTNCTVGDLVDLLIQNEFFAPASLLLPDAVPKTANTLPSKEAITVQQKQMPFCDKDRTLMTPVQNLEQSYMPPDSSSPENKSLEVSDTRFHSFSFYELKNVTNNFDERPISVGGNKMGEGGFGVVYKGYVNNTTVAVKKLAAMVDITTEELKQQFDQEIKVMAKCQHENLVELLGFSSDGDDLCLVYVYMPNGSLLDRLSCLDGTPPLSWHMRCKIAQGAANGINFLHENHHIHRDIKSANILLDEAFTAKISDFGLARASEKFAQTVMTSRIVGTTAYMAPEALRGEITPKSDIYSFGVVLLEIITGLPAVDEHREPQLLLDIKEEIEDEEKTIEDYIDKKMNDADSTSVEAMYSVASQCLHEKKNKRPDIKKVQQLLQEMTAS

SMILES	pEC50 (TNFα; TNFα content)	pIC50 (IRAK4 enzyme; TR-FRET)	pEC50 (TNFα; TNFα by TR-FRET)	pIC50 (IRAK4 enzyme; TR-FRET (HTRF))
CNC(=O)C1CCC(Nc2cc(-c3ccc4cc(C#N)cnn34)ncc2C(=O)NC[C@@H](F)C(C)(C)O)CC1 (stereo partly drawn) [Example 182, 6-(3-cyanopyrrolo[1,2-b]pyridazin-7-yl)-N-((R)-2-fluoro-3-hydroxy-3-methylbutyl)-4-(((1r,4R)-4-(methylcarbamoyl)cyclohexyl)amino) nicotinamide]	7.15	9.00		
CC(C)Cc1cccc(Nc2cc(-c3ccc4cc(C#N)cnn34)ncc2C(=O)NC[C@@H](F)C(C)(C)O)c1 [Example 838, (R)-6-(3-cyanopyrrolo[1,2-b]pyridazin-7-yl)-N-(2-fluoro-3-hydroxy-3-methylbutyl)-4-((3-isobutylphenyl)amino) nicotinamide]		7.24	< 5.00	
CC(C)(O)[C@H](F)CNC(=O)c1cnc(-c2ccc3cc(C#N)cnn23)cc1NC1CCC(S(C)(=O)=O)CC1 (stereo partly drawn) [Example 523, (R)-6-(3-cyanopyrrolo[1,2-b]pyridazin-7-yl)-N-(2-fluoro-3-hydroxy-3-methylbutyl)-4-((4-(methylsulfonyl)cyclohexyl)amino)nicotinamide]	6.39			7.85
CC(C)(O)[C@H](F)CNC(=O)c1cnc(-c2ccc3cc(C#N)cnn23)cc1Nc1ccc(OC(F)F)nc1 [Example 597, (R)-6-(3-cyano-pyrrolo[1,2-b]pyridazin-7-yl)-4-((6-(difluoro-methoxy)pyridin-3-yl)amino)-N-(2-fluoro-3-hydroxy-3-methylbutyl) nicotinamide]	6.97			9.00
C[C@H](NC(=O)c1cnc(-c2ccc3cc(C#N)cnn23)cc1NC12CCC(O)(CC1)CC2)C(=O)N1CCOCC1 [Example 943, (S)-6-(3-cyano-pyrrolo[1,2-b]pyridazin-7-yl)-4-((4-hydroxy-bicyclo[2.2.2]octan-1-yl)amino)-N-(1-morpholino-1-oxopropan-2-yl) nicotinamide]		7.46	6.08	
CC(C)(O)[C@H](F)CNC(=O)c1cnc(-c2ccc3cc(C#N)cnn23)cc1Nc1cnn([C@H]2CCN(C3COC3)C2)c1 [Example 199, 6-(3-cyanopyrrolo[1,2-b]pyridazin-7-yl)-N-((R)-2-fluoro-3-hydroxy-3-methylbutyl)-4-((1-((S)-1-(oxetan-3-yl)pyrrolidin-3-yl)-1H-pyrazol-4-yl)amino)nicotinamide]	7.09	> 9.00		
N#Cc1cnn2c(-c3cc(NC45CCC(O)(CC4)CC5)c(C(=O)NCCC4CCCO4)cn3)ccc2c1 (stereo not shown) [Example 346, 6-(3-cyanopyrrolo[1,2-b]pyridazin-7-yl)-4-((4-hydroxybicyclo[2.2.2]octan-1-yl)amino)-N-(2-(tetrahydrofuran-2-yl)ethyl)nicotinamide]	7.74	9.00		
CC(=O)NC1CCC(NC(=O)c2cnc(-c3ccc4cc(C#N)cnn34)cc2N[C@H]2CC[C@H](NC(C)=O)CC2)CC1 (stereo partly drawn) [Example 301, N-((1s,4S)-4-acetamidocyclohexyl)-4-(((1r,4R)-4-acetamidocyclohexyl)amino)-6-(3-cyanopyrrolo[1,2-b]pyridazin-7-yl)nicotinamide]	5.85	8.70		
Cc1ncoc1-c1ccc(Nc2cc(-c3ccc4cc(C#N)cnn34)ncc2C(=O)NC[C@@H](F)C(C)(C)O)cc1 [Example 629, (R)-6-(3-cyanopyrrolo[1,2-b]pyridazin-7-yl)-N-(2-fluoro-3-hydroxy-3-methylbutyl)-4-((4-(4-methyloxazol-5-yl)phenyl)amino)nicotinamide]	7.66			> 9.00
CC(C)(O)[C@H](F)CNC(=O)c1cnc(-c2ccc3cc(C#N)cnn23)cc1N[C@H]1C[C@H](C(C)(C)O)C1 [Example 548, 6-(3-cyanopyrrolo[1,2-b]pyridazin-7-yl)-N-((R)-2-fluoro-3-hydroxy-3-methylbutyl)-4-(((1r,3R)-3-(2-hydroxypropan-2-yl)cyclobutyl)amino) nicotinamide]	7.66			9.00
CC(C)Nc1cc(-c2ccc3cc(C#N)cnn23)ncc1C(=O)NC1CCOCC1 [Example 6, 6-(3-cyanopyrrolo[1,2-b]pyridazin-7-yl)-4-(isopropylamino)-N-(tetrahydro-2H-pyran-4-yl)nicotinamide]	6.82	8.30		
CC(C)Nc1cc(-c2ccc3cc(C#N)cnn23)ncc1C(=O)NC1CC1CO (single isomer, unassigned) [Example 18, 6-(3-cyanopyrrolo[1,2-b]pyridazin-7-yl)-N-(2-(hydroxymethyl)cyclopropyl)-4-(isopropylamino)nicotinamide]	6.12	8.05		
CC(C)(O)[C@H](F)CNC(=O)c1cnc(-c2ccc3cc(C#N)cnn23)cc1NC1CC(F)(F)C1 [Example 40, (R)-6-(3-cyanopyrrolo[1,2-b]pyridazin-7-yl)-4-((3,3-difluorocyclobutyl)amino)-N-(2-fluoro-3-hydroxy-3-methylbutyl)nicotinamide]	7.14	> 9.00		
CC(C)NC(=O)c1cnc(-c2ccc3cc(C#N)cnn23)cc1NC(C)C [Example 369, 6-(3-cyanopyrrolo[1,2-b]pyridazin-7-yl)-N-isopropyl-4-(isopropylamino)nicotinamide]	6.04	7.80		
CC(C)(O)[C@H](F)CNC(=O)c1cnc(-c2ccc3cc(C#N)cnn23)cc1N[C@H]1C[C@H](CNS(C)(=O)=O)C1 [Example 831, 6-(3-cyanopyrrolo[1,2-b]pyridazin-7-yl)-N-((R)-2-fluoro-3-hydroxy-3-methylbutyl)-4-(((1r,3R)-3-(methylsulfonamido-methyl)cyclobutyl)amino)nicotinamide]		> 9.00	7.31	
COC(C)(C)[C@H](F)CNC(=O)c1cnc(-c2ccc3cc(C#N)cnn23)cc1NC12CC(NC(C)=O)(C1)C2 [Example 495, (R)-4-((3-acetamidobicyclo[1.1.1]pentan-1-yl)amino)-6-(3-cyanopyrrolo[1,2-b]pyridazin-7-yl)-N-(2-fluoro-3-methoxy-3-methylbutyl)nicotinamide]	7.40			> 9.00
CC(C)(O)[C@H](F)CNC(=O)c1cnc(-c2ccc3cc(C#N)cnn23)cc1NC1CC(CNC(=O)C2CCC2)C1 (stereo partly drawn) [Example 927, 6-(3-cyanopyrrolo[1,2-b]pyridazin-7-yl)-4-(((1r,3R)-3-(cyclobutanecarboxamido-methyl)cyclobutyl)amino)-N-((R)-2-fluoro-3-hydroxy-3-methylbutyl)nicotinamide]		> 9.00	7.66	
CC(C)(O)[C@H](F)CNC(=O)c1cnc(-c2ccc3cc(C#N)cnn23)cc1Nc1ccc2c(c1)CNC2 [Example 863, (R)-6-(3-cyanopyrrolo[1,2-b]pyridazin-7-yl)-N-(2-fluoro-3-hydroxy-3-methylbutyl)-4-(isoindolin-5-ylamino)nicotinamide]		> 9.00	7.13	
N#Cc1cnn2c(-c3cc(NC45CCC(O)(CC4)CC5)c(C(=O)NCC(=O)N4CCC(F)(F)C4)cn3)ccc2c1 [Example 798, 6-(3-cyanopyrrolo[1,2-b]pyridazin-7-yl)-N-(2-(3,3-difluoropyrrolidin-1-yl)-2-oxoethyl)-4-((4-hydroxybicyclo[2.2.2]octan-1-yl)amino) nicotinamide]		9.00	7.38	
CC(C)(O)[C@H](F)CNC(=O)c1cnc(-c2ccc3cc(C#N)cnn23)cc1NC1CCS(=O)(=O)CC1 [Example 75, (R)-6-(3-cyanopyrrolo[1,2-b]pyridazin-7-yl)-4-((1,1-dioxidotetrahydro-2H-thiopyran-4-yl)amino)-N-(2-fluoro-3-hydroxy-3-methylbutyl) nicotinamide]	6.26	8.52		
CC(C)(O)[C@H](F)CNC(=O)c1cnc(-c2ccc3cc(C#N)cnn23)cc1NC1CCN(CC(F)(F)F)CC1 [Example 329, (R)-6-(3-cyanopyrrolo[1,2-b]pyridazin-7-yl)-N-(2-fluoro-3-hydroxy-3-methylbutyl)-4-((1-(2,2,2-trifluoroethyl)piperidin-4-yl)amino)nicotinamide]	7.21	9.00		
COC(=O)N1CC(CNC(=O)c2cnc(-c3ccc4cc(C#N)cnn34)cc2NC23CCC(O)(CC2)CC3)C1 [Example 744, methyl 3-((6-(3-cyano-pyrrolo[1,2-b]pyridazin-7-yl)-4-((4-hydroxy-bicyclo[2.2.2]octan-1-yl)amino)nicotinamido)methyl)azetidine-1-carboxylate]	6.80			8.70
CC(C)(O)[C@H](F)CNC(=O)c1cnc(-c2ccc3cc(C#N)cnn23)cc1Nc1ccc(N2CCC2)nc1 [Example 675, (R)-4-((6-(azetidin-1-yl)pyridin-3-yl)amino)-6-(3-cyanopyrrolo[1,2-b]pyridazin-7-yl)-N-(2-fluoro-3-hydroxy-3-methylbutyl)nicotinamide]	7.64			> 9.00
N#CCNC(=O)c1cnc(-c2ccc3cc(C#N)cnn23)cc1NC12CCC(C(=O)N3CC(F)(F)C3)(CC1)CC2 [Example 474, N-(cyanomethyl)-6-(3-cyanopyrrolo[1,2-b]pyridazin-7-yl)-4-((4-(3,3-difluoroazetidine-1-carbonyl)bicyclo[2.2.2]octan-1-yl)amino)nicotinamide]	7.64			> 9.00
CC(C)(O)[C@H](F)CNC(=O)c1cnc(-c2ccc3cc(C#N)cnn23)cc1N[C@H]1C[C@H](CO)C1 [Example 536, 6-(3-cyanopyrrolo[1,2-b]pyridazin-7-yl)-N-((R)-2-fluoro-3-hydroxy-3-methylbutyl)-4-(((1r,3R)-3-(hydroxymethyl)cyclo-butyl)amino)nicotinamide]	7.80			> 9.00
CC(C)(O)[C@H](F)CNC(=O)c1cnc(-c2ccc3cc(C#N)cnn23)cc1Nc1ccc(Cn2ccccc2=O)cc1 [Example 719, (R)-6-(3-cyanopyrrolo[1,2-b]pyridazin-7-yl)-N-(2-fluoro-3-hydroxy-3-methylbutyl)-4-((4-((2-oxopyridin-1(2H)-yl)methyl)phenyl)amino)nicotinamide]	7.96			> 9.00
